Starred links: 1 amine or outer side, 2 acyl side, 3 side chain; linkers in the order of their positions; H or OH if unused. Positions of bridges follow the written chain, without caps; N, C: chain ends. Non-standard residues stand in square brackets, D forms with d. Residues, ends and D or L forms follow the SMILES beside them. Groups on a side chain read outwards from the residue. *: point of attachment. Phe(4-(1-Me-pyrazol-4-yl)) = Cn1cc(-c2ccc(C[C@H](N)C(=O)O)cc2)cn1; NMeAla(isoquinolin-7-yl) = CN[C@@H](Cc1ccc2ccncc2c1)C(=O)O; DOTA = O=C(O)CN1CCN(CC(=O)O)CCN(CC(=O)*)CCN(CC(=O)O)CC1; PEG12 = NCCOCCOCCOCCOCCOCCOCCOCCOCCOCCOCCOCCOCCC(=O)O; Phe(4-CH2COOH) = N[C@@H](Cc1ccc(CC(=O)O)cc1)C(=O)O; 3Pal(6-Ph) = N[C@@H](Cc1ccc(-c2ccccc2)nc1)C(=O)O; Biotin = O=C1N[C@H]2[C@H](CS[C@H]2CCCCC(=O)*)N1; Phe(4-COOH) = N[C@@H](Cc1ccc(C(=O)O)cc1)C(=O)O; Piperazinyl(4-CH2COOH) = O=C(O)CN1CCN(*)CC1; NMe2Nal = CN[C@@H](Cc1ccc2ccccc2c1)C(=O)O; X1 = CO[C@@H](O)[C@H](N[*:1])C(=O)[*:2]; AEF = NCCOc1ccc(C[C@H](N)C(=O)O)cc1; NMeI = CC[C@H](C)[C@H](NC)C(=O)O; NMeQ = CN[C@@H](CCC(N)=O)C(=O)O; NMehSer = CN[C@@H](CCO)C(=O)O; NMeK = CN[C@@H](CCCCN)C(=O)O; NMeDap = CN[C@@H](CN)C(=O)O; NMeC = CN[C@@H](CS)C(=O)O; Carboxymethyl = O=C(O)C*; CO = O=C([*:1])[*:2]
Target: Human Glypican3-Fc (Homo sapiens, UniProt P51654)
Test: SPR binding to Glypican-3, Method B-3 (Glypican3-Fc captured on Protein A chip, 5-point dilution series)
Details: SPR method B-3
Method: A Protein A sensor chip (Cytiva) was inserted into a Biacore T200 (Cytiva), priming was performed three times with a running buffer: HBS-P+, pH 7.4 (Cytiva), and equilibration was carried out at a flow rate of 30 μL/min. Glypican3-Fc was allowed to react for 60 seconds at a flow rate of 10 μL/min. After capturing human Glypican3-Fe, a peptide solution prepared to 10 mM in DMSO solution was diluted with a running buffer to a final concentration of 10 μM. After that, 5 serial dilution series (100 nM, 50 nM, 25 nM, 10 nM, 5 nM) of peptide solutions were prepared. Using the above samples, peptide kinetics for Glypican3 was obtained by SPR measurement. Kinetics evaluation of Glypican3 was performed by SPR measurements at a flow rate of 10 LL/min, setting the association time to 120 seconds and the disassociation time to 600 seconds.
The obtained data by Method B-1, Method B-2, Method B-3 and Method B-4 were analyzed by follow. Single Cycle Kinetics was used as the kinetics evaluation model, and curve fitting was performed using Biacore T200 Evaluation Software Version 3.0 (Cytiva).

Structure (SMILES)	Kd [nM]
CC[C@H](C)[C@@H]1NC(=O)[C@H]([C@@H](C)OC)NC(=O)[C@H](Cc2ccc(C(=O)O)cc2)NC(=O)[C@H](CCC(N)=O)N(C)C(=O)[C@H](CC(=O)O)NC(=O)[C@H](CCOC)N(C)C(=O)[C@H](CCCCNC(=O)CN2CCN(CC(=O)O)CCN(CC(=O)O)CCN(CC(=O)O)CC2)N(C)C(=O)CSC[C@@H](C(N)=O)N(C)C(=O)[C@H](Cc2ccc(-c3ccccc3)nc2)NC(=O)CNC(=O)[C@H](Cc2ccc3ccncc3c2)N(C)C(=O)[C@H](Cc2ccc(OCC(=O)O)cc2)NC1=O [Lu-C-63] ({CH2CO}-[NMeK](DOTA)[NMehSer](Me)D[NMeQ][Phe(4-COOH)]T(Me)IY(Carboxymethyl)[NMeAla(isoquinolin-7-yl)]G[3Pal(6-Ph)][NMeC]-NH2; thioether N-12)	1.6
CC[C@H](C)[C@@H]1NC(=O)[C@H](Cc2ccc(C(=O)O)cc2)NC(=O)[C@H](CCC(N)=O)N(C)C(=O)[C@H](CC(=O)O)NC(=O)[C@H](CCC(N)=O)N(C)C(=O)[C@H](CCC(N)=O)N(C)C(=O)CSC[C@@H](C(N)=O)N(C)C(=O)[C@H](Cc2ccc(-c3cnn(C)c3)cc2)NC(=O)CNC(=O)[C@H](Cc2ccc3ccccc3c2)N(C)C(=O)[C@H](Cc2ccc(OCCN)cc2)NC(=O)[C@H]([C@@H](C)CC)NC1=O [Conjugate 2-53] ({CH2CO}-[NMeQ][NMeQ]D[NMeQ][Phe(4-COOH)]II[AEF][NMe2Nal]G[Phe(4-(1-Me-pyrazol-4-yl))][NMeC]-NH2; thioether N-12)	1
CC[C@H](C)[C@@H]1NC(=O)[C@H]([C@@H](C)OC)NC(=O)[C@H](Cc2ccc(C(=O)O)cc2)NC(=O)[C@H](CNC(=O)N2CCN(CC(=O)O)CC2)N(C)C(=O)[C@H](CC(=O)O)NC(=O)[C@H](CCOC)N(C)C(=O)[C@H](CNC(=O)N2CCN(CC(=O)O)CC2)N(C)C(=O)CSC[C@@H](C(N)=O)N(C)C(=O)[C@H](Cc2ccc(-c3ccccc3)nc2)NC(=O)CNC(=O)[C@H](Cc2ccc3ccncc3c2)N(C)C(=O)[C@H](Cc2ccc(OCCN)cc2)NC1=O [Conjugate 2-37] ({CH2CO}-[NMeDap]([CO-Piperazinyl(4-CH2COOH)])[NMehSer](Me)D[NMeDap]([CO-Piperazinyl(4-CH2COOH)])[Phe(4-COOH)]T(Me)I[AEF][NMeAla(isoquinolin-7-yl)]G[3Pal(6-Ph)][NMeC]-NH2; thioether N-12 (inferred))	1
CC[C@H](C)[C@@H]1NC(=O)[C@H]([C@@H](C)OC)NC(=O)[C@H](Cc2ccc(C(=O)O)cc2)NC(=O)[C@H](CCC(N)=O)N(C)C(=O)[C@H](CC(=O)O)NC(=O)[C@H](CCOC)N(C)C(=O)[C@H](CCCCN)N(C)C(=O)CSC[C@@H](C(N)=O)N(C)C(=O)[C@H](Cc2ccc(-c3ccccc3)nc2)NC(=O)CNC(=O)[C@H](Cc2ccc3ccncc3c2)N(C)C(=O)[C@H](Cc2ccc(O)cc2)NC1=O [Conjugate 1] ({CH2CO}-[NMeK][NMehSer](Me)D[NMeQ][Phe(4-COOH)]T(Me)IY[NMeAla(isoquinolin-7-yl)]G[3Pal(6-Ph)][NMeC]-NH2; thioether N-12)	0.2
CC[C@H](C)[C@@H]1NC(=O)[C@H](Cc2ccc(C(=O)O)cc2)NC(=O)[C@H](CCC(N)=O)N(C)C(=O)[C@H](CC(=O)O)NC(=O)[C@H](CCOC)N(C)C(=O)[C@H](CCCCN)N(C)C(=O)CSC[C@@H](C(N)=O)N(C)C(=O)[C@H](Cc2ccc(-c3ccccc3)nc2)NC(=O)CNC(=O)[C@H](Cc2ccc3ccccc3c2)N(C)C(=O)[C@H](Cc2ccc(CC(=O)O)cc2)NC(=O)[C@H]([C@@H](C)CC)NC1=O [Conjugate 2-47] ({CH2CO}-[NMeK][NMehSer](Me)D[NMeQ][Phe(4-COOH)]II[Phe(4-CH2COOH)][NMe2Nal]G[3Pal(6-Ph)][NMeC]-NH2; thioether N-12)	0.2
CC[C@H](C)[C@@H]1NC(=O)[C@H]([C@@H](C)OC)NC(=O)[C@H](Cc2ccc(C(=O)O)cc2)NC(=O)[C@H](CNC(=O)N2CCN(CC(=O)O)CC2)N(C)C(=O)[C@H](CC(=O)O)NC(=O)[C@H](CCOC)N(C)C(=O)[C@H](CCCCNC(=O)N2CCN(CC(=O)O)CC2)N(C)C(=O)SCC[C@@H](C(N)=O)N(C)C(=O)[C@H](Cc2ccc(-c3ccccc3)nc2)NC(=O)CNC(=O)[C@H](Cc2ccc3ccncc3c2)N(C)C(=O)[C@H](Cc2ccc(OCCN)cc2)NC1=O [Conjugate 2-38]	1.8
CC[C@H](C)[C@@H]1NC(=O)[C@H]([C@H](O)OC)NC(=O)[C@H](Cc2ccc(C(=O)O)cc2)NC(=O)[C@H](CCC(N)=O)N(C)C(=O)[C@H](CC(=O)O)NC(=O)[C@H](CCOC)N(C)C(=O)[C@H](CCCCNC(=O)N2CCN(CC(=O)O)CC2)N(C)C(=O)CSC[C@@H](C(N)=O)N(C)C(=O)[C@H](Cc2ccc(-c3ccccc3)nc2)NC(=O)CNC(=O)[C@H](Cc2ccc3ccncc3c2)N(C)C(=O)[C@H](Cc2ccc(O)cc2)NC1=O [Conjugate 2-25] ({CH2CO}-[NMeK]([CO-Piperazinyl(4-CH2COOH)])[NMehSer](Me)D[NMeQ][Phe(4-COOH)][X1]IY[NMeAla(isoquinolin-7-yl)]G[3Pal(6-Ph)][NMeC]-NH2; thioether N-12)	6.6
CC[C@H](C)[C@@H]1NC(=O)[C@H](Cc2ccc(C(=O)O)cc2)NC(=O)[C@H](CCC(N)=O)N(C)C(=O)[C@H](CC(=O)O)NC(=O)[C@H]([C@@H](C)CC)N(C)C(=O)[C@H](CCCCNC(C)=O)N(C)C(=O)CSC[C@@H](C(N)=O)N(C)C(=O)[C@H](Cc2ccc(-c3ccccc3)nc2)NC(=O)CNC(=O)[C@H](Cc2ccc3ccncc3c2)N(C)C(=O)[C@H](Cc2ccc(O)cc2)NC(=O)[C@H]([C@@H](C)CC)NC1=O [Conjugate 2-4] ({CH2CO}-[NMeK](Ac)[NMeI]D[NMeQ][Phe(4-COOH)]IIY[NMeAla(isoquinolin-7-yl)]G[3Pal(6-Ph)][NMeC]-NH2; thioether N-12)	0.3

Further molecules by falling Kd, results first:

Kd [nM]	Structure (SMILES)
1.8	CC[C@H](C)[C@@H]1NC(=O)[C@H]([C@@H](C)OC)NC(=O)[C@H](Cc2ccc(C(=O)O)cc2)NC(=O)[C@H](CCCCNC(=O)N2CCN(CC(=O)O)CC2)N(C)C(=O)[C@H](CC(=O)O)NC(=O)[C@H](CCCCNC(=O)N2CCN(CC(=O)O)CC2)N(C)C(=O)[C@H](CCCCN)N(C)C(=O)CSC[C@@H](C(N)=O)N(C)C(=O)[C@H](Cc2ccc(-c3ccccc3)nc2)NC(=O)CNC(=O)[C@H](Cc2ccc3ccncc3c2)N(C)C(=O)[C@H](Cc2ccc(OCC(=O)N3CCN(CC(=O)O)CC3)cc2)NC1=O [Conjugate 2-32]
1.04	CC[C@H](C)[C@@H]1NC(=O)[C@H](Cc2ccc(C(=O)O)cc2)NC(=O)[C@H](CCC(N)=O)N(C)C(=O)[C@H](CC(=O)O)NC(=O)[C@H]([C@@H](C)CC)N(C)C(=O)[C@H](CCCCNC(=O)CCOCCOCCOCCOCCOCCOCCOCCOCCOCCOCCOCCOCCNC(=O)CCCC[C@@H]2SC[C@@H]3NC(=O)N[C@@H]32)N(C)C(=O)CSC[C@@H](C(N)=O)N(C)C(=O)[C@H](Cc2ccc(-c3ccccc3)nc2)NC(=O)CNC(=O)[C@H](Cc2ccc3ccncc3c2)N(C)C(=O)[C@H](Cc2ccc(OCC(=O)O)cc2)NC(=O)[C@H]([C@@H](C)CC)NC1=O [PLB-64] ({CH2CO}-[NMeK]([PEG12-Biotin])[NMeI]D[NMeQ][Phe(4-COOH)]IIY(Carboxymethyl)[NMeAla(isoquinolin-7-yl)]G[3Pal(6-Ph)][NMeC]-NH2; thioether N-12)
0.3	CC[C@H](C)[C@@H]1NC(=O)[C@H]([C@@H](C)OC)NC(=O)[C@H](Cc2ccc(C(=O)O)cc2)NC(=O)[C@H](CNC(=O)N2CCN(CC(=O)O)CC2)N(C)C(=O)[C@H](CC(=O)O)NC(=O)[C@H](CCOC)N(C)C(=O)[C@H](CNC(=O)N2CCN(CC(=O)O)CC2)N(C)C(=O)CSC[C@@H](C(N)=O)N(C)C(=O)[C@H](Cc2ccc(-c3ccccc3)nc2)NC(=O)CNC(=O)[C@H](Cc2ccc3ccccc3c2)N(C)C(=O)[C@H](Cc2ccc(OCCN)cc2)NC1=O [Conjugate 2-33] ({CH2CO}-[NMeDap]([CO-Piperazinyl(4-CH2COOH)])[NMehSer](Me)D[NMeDap]([CO-Piperazinyl(4-CH2COOH)])[Phe(4-COOH)]T(Me)I[AEF][NMe2Nal]G[3Pal(6-Ph)][NMeC]-NH2; thioether N-12 (inferred))
0.23	CC[C@H](C)[C@@H]1NC(=O)[C@H]([C@@H](C)OC)NC(=O)[C@H](Cc2ccc(C(=O)O)cc2)NC(=O)[C@H](CCC(N)=O)N(C)C(=O)[C@H](CC(=O)O)NC(=O)[C@H]([C@@H](C)CC)N(C)C(=O)[C@H](CCCCN)N(C)C(=O)CSC[C@@H](C(N)=O)N(C)C(=O)[C@H](Cc2ccc(-c3ccccc3)nc2)NC(=O)CNC(=O)[C@H](Cc2ccc3ccncc3c2)N(C)C(=O)[C@H](Cc2ccc(O)cc2)NC1=O [Conjugate 2-60] ({CH2CO}-[NMeK][NMeI]D[NMeQ][Phe(4-COOH)]T(Me)IY[NMeAla(isoquinolin-7-yl)]G[3Pal(6-Ph)][NMeC]-NH2; thioether N-12)

— patent publication US20260241049A1, “Radiopharmaceutical Compositions Targeting Glypican-3 and Uses Thereof” (RayzeBio, Inc., priority 2023, published 2026)
